# “And” between values parts separate entries of the source, which are not always exact repeats. Equal values may be shown once. Toxic doses and inconclusive results are not listed.
# Test system: CD2F1 mice, L1210 leukemia ip, survival T/C
# Assay: NCI In Vivo Anticancer Drug Screen. Data for tumor model L1210 Leukemia (intraperitoneal) in CD2F1 (CDF1) mice
# Details: higher = longer survival
# Outline: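 Implant tumor; dose compound or vehicle; measure endpoint in both groups; report treated divided by control.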
# [1] = endpoint: mean survival time, dose: 100.0 mg/kg/injection, schedule: Q04DX002 (ip), vehicle: saline with Tween-80
structure (smiles),measurement,setting,value
COc1cc(NCc2ccc3nc(N)nc(N)c3c2C)cc(OC)c1OC,T/C,"endpoint: mean survival time, dose: 0.62 mg/kg/injection, schedule: Q01DX009 (ip), vehicle: sodium bicarbonate",102 % of control
same,T/C,"endpoint: mean survival time, dose: 1.25 mg/kg/injection, schedule: Q01DX009 (ip), vehicle: sodium bicarbonate",102 % of control and 106 % of control
same,T/C,"endpoint: mean survival time, dose: 1.87 mg/kg/injection, schedule: Q04DX003 (ip), vehicle: sodium bicarbonate",106 % of control
same,T/C,"endpoint: mean survival time, dose: 2.5 mg/kg/injection, schedule: Q01DX009 (ip), vehicle: sodium bicarbonate",110 % of control and 112 % of control
same,T/C,"endpoint: mean survival time, dose: 3.11 mg/kg/injection, schedule: Q01DX009 (ip), vehicle: other",118 % of control
same,T/C,"endpoint: mean survival time, dose: 3.75 mg/kg/injection, schedule: Q04DX003 (ip), vehicle: sodium bicarbonate",96 % of control
same,T/C,"endpoint: mean survival time, dose: 5.0 mg/kg/injection, schedule: Q01DX009 (ip), vehicle: sodium bicarbonate",121 % of control and 110 % of control
same,T/C,"endpoint: mean survival time, dose: 5.18 mg/kg/injection, schedule: Q01DX009 (ip), vehicle: other",121 % of control
same,T/C,"endpoint: mean survival time, dose: 5.27 mg/kg/injection, schedule: Q01DX009 (ip), vehicle: Klucel (hydroxypropylcellulose) (HPC)",122 % of control
same,T/C,"endpoint: mean survival time, dose: 7.05 mg/kg/injection, schedule: Q01DX009 (ip), vehicle: water",117 % of control
same,T/C,"endpoint: mean survival time, dose: 7.5 mg/kg/injection, schedule: Q04DX003 (ip), vehicle: sodium bicarbonate",110 % of control
same,T/C,"endpoint: mean survival time, dose: 10.5 mg/kg/injection, schedule: Q01DX009 (ip), vehicle: water",123 % of control
same,T/C,"endpoint: mean survival time, dose: 15.0 mg/kg/injection, schedule: Q04DX003 (ip), vehicle: sodium bicarbonate",112 % of control
same,T/C,"endpoint: mean survival time, dose: 17.8 mg/kg/injection, schedule: Q01DX009 (ip), vehicle: Klucel (hydroxypropylcellulose) (HPC)",174 % of control
same,T/C,"endpoint: mean survival time, dose: 20.0 mg/kg/injection, schedule: Q01DX009 (ip), vehicle: sodium bicarbonate",156 % of control and 160 % of control
same,T/C,"endpoint: mean survival time, dose: 24.0 mg/kg/injection, schedule: Q01DX009 (ip), vehicle: other",152 % of control
same,T/C,"endpoint: mean survival time, dose: 26.7 mg/kg/injection, schedule: Q01DX009 (ip), vehicle: Klucel (hydroxypropylcellulose) (HPC)",191 % of control
same,T/C,"endpoint: mean survival time, dose: 30.0 mg/kg/injection, schedule: Q04DX003 (ip), vehicle: sodium bicarbonate",114 % of control
same,T/C,"endpoint: mean survival time, dose: 40.0 mg/kg/injection, schedule: Q01DX009 (ip), vehicle: Klucel (hydroxypropylcellulose) (HPC)",216 % of control
same,T/C,"endpoint: mean survival time, dose: 40.0 mg/kg/injection, schedule: Q01DX009 (ip), vehicle: other",167 % of control
same,T/C,"endpoint: mean survival time, dose: 40.0 mg/kg/injection, schedule: Q01DX009 (ip), vehicle: sodium bicarbonate",110 % of control
same,T/C,"endpoint: mean survival time, dose: 60.0 mg/kg/injection, schedule: Q01DX009 (ip), vehicle: Klucel (hydroxypropylcellulose) (HPC)",122 % of control
same,T/C,"endpoint: mean survival time, dose: 80.0 mg/kg/injection, schedule: Q01DX009 (ip), vehicle: water",151 % of control
same,T/C,"endpoint: mean survival time, dose: 90.0 mg/kg/injection, schedule: Q01DX009 (ip), vehicle: Klucel (hydroxypropylcellulose) (HPC)",116 % of control
same,T/C,"endpoint: median survival time, dose: 2.5 mg/kg/injection, schedule: Q01DX009 (ip), vehicle: sodium bicarbonate",109 % of control
same,T/C,"endpoint: median survival time, dose: 5.0 mg/kg/injection, schedule: Q01DX009 (ip), vehicle: Klucel (hydroxypropylcellulose) (HPC)",119 % of control
same,T/C,"endpoint: median survival time, dose: 5.0 mg/kg/injection, schedule: Q01DX009 (ip), vehicle: sodium bicarbonate",117 % of control and 124 % of control
same,T/C,"endpoint: median survival time, dose: 6.25 mg/kg/injection, schedule: Q01DX009 (ip), vehicle: water",124 % of control
same,T/C,"endpoint: median survival time, dose: 7.5 mg/kg/injection, schedule: Q01DX005 (ip), vehicle: Klucel (hydroxypropylcellulose) (HPC)",150 % of control
same,T/C,"endpoint: median survival time, dose: 10.0 mg/kg/injection, schedule: Q01DX009 (ip), vehicle: Klucel (hydroxypropylcellulose) (HPC)",151 % of control
same,T/C,"endpoint: median survival time, dose: 15.0 mg/kg/injection, schedule: Q01DX005 (ip), vehicle: Klucel (hydroxypropylcellulose) (HPC)",167 % of control
same,T/C,"endpoint: median survival time, dose: 18.0 mg/kg/injection, schedule: Q01DX009 (ip), vehicle: distilled water + Tween-80",153 % of control
same,T/C,"endpoint: median survival time, dose: 20.0 mg/kg/injection, schedule: Q01DX009 (ip), vehicle: Klucel (hydroxypropylcellulose) (HPC)",172 % of control
same,T/C,"endpoint: median survival time, dose: 20.0 mg/kg/injection, schedule: Q01DX009 (ip), vehicle: sodium bicarbonate",152 % of control and 157 % of control
same,T/C,"endpoint: median survival time, dose: 25.0 mg/kg/injection, schedule: Q01DX009 (ip), vehicle: water",157 % of control
same,T/C,"endpoint: median survival time, dose: 27.0 mg/kg/injection, schedule: Q01DX009 (ip), vehicle: distilled water + Tween-80",165 % of control
same,T/C,"endpoint: median survival time, dose: 30.0 mg/kg/injection, schedule: Q01DX005 (ip), vehicle: Klucel (hydroxypropylcellulose) (HPC)",166 % of control and 175 % of control
same,T/C,"endpoint: median survival time, dose: 40.0 mg/kg/injection, schedule: Q01DX009 (ip), vehicle: distilled water + Tween-80",158 % of control and 168 % of control
same,T/C,"endpoint: median survival time, dose: 40.0 mg/kg/injection, schedule: Q01DX009 (ip), vehicle: sodium bicarbonate",168 % of control and 181 % of control
same,T/C,"endpoint: median survival time, dose: 44.0 mg/kg/injection, schedule: Q01DX009 (ip), vehicle: water",154 % of control
same,T/C,"endpoint: median survival time, dose: 50.0 mg/kg/injection, schedule: Q01DX009 (ip), vehicle: water",157 % of control and 165 % of control
same,T/C,"endpoint: median survival time, dose: 60.0 mg/kg/injection, schedule: Q01DX005 (ip), vehicle: Klucel (hydroxypropylcellulose) (HPC)",184 % of control and 185 % of control
same,T/C,"endpoint: median survival time, dose: 60.0 mg/kg/injection, schedule: Q01DX009 (ip), vehicle: distilled water + Tween-80",160 % of control and 182 % of control
same,T/C,"endpoint: median survival time, dose: 80.0 mg/kg/injection, schedule: Q01DX009 (ip), vehicle: Klucel (hydroxypropylcellulose) (HPC)",112 % of control
same,T/C,"endpoint: median survival time, dose: 90.0 mg/kg/injection, schedule: Q01DX009 (ip), vehicle: distilled water + Tween-80",118 % of control
same,T/C,"endpoint: median survival time, dose: 100.0 mg/kg/injection, schedule: Q01DX009 (ip), vehicle: water",173 % of control and 184 % of control
same,T/C,"endpoint: median survival time, dose: 120.0 mg/kg/injection, schedule: Q01DX005 (ip), vehicle: Klucel (hydroxypropylcellulose) (HPC)",236 % of control
CN(C)C(SCc1ccccc1)=[N+](C)C,T/C,[1],105 % of control
same,T/C,"endpoint: mean survival time, dose: 200.0 mg/kg/injection, schedule: Q04DX002 (ip), vehicle: saline with Tween-80",94 % of control
NCc1ccc(-c2nc3ncnc(N)c3[nH]2)cc1,T/C,"endpoint: mean survival time, dose: 3.13 mg/kg/injection, schedule: Q01DX001 (ip), vehicle: saline with Tween-80",108 % of control
same,T/C,"endpoint: mean survival time, dose: 6.25 mg/kg/injection, schedule: Q01DX001 (ip), vehicle: saline with Tween-80",102 % of control
same,T/C,"endpoint: mean survival time, dose: 12.5 mg/kg/injection, schedule: Q01DX001 (ip), vehicle: saline with Tween-80",100 % of control and 110 % of control
same,T/C,"endpoint: mean survival time, dose: 25.0 mg/kg/injection, schedule: Q01DX001 (ip), vehicle: saline with Tween-80",102 % of control
same,T/C,"endpoint: mean survival time, dose: 50.0 mg/kg/injection, schedule: Q01DX001 (ip), vehicle: saline with Tween-80",109 % of control
same,T/C,"endpoint: mean survival time, dose: 100.0 mg/kg/injection, schedule: Q01DX001 (ip), vehicle: saline with Tween-80",106 % of control and 110 % of control
CC(=O)OC1CCC2(C)C(CCC3(C)C2CCC2C4C5OC(=O)C4(CCC5(C)C)CCC23C)C1(C)C (stereo unspecified),T/C,"endpoint: mean survival time, dose: 6.25 mg/kg/injection, schedule: Q04DX002 (ip), vehicle: saline with Tween-80",114 % of control
same,T/C,"endpoint: mean survival time, dose: 12.5 mg/kg/injection, schedule: Q04DX002 (ip), vehicle: saline with Tween-80",100 % of control
same,T/C,"endpoint: mean survival time, dose: 25.0 mg/kg/injection, schedule: Q04DX002 (ip), vehicle: saline with Tween-80",100 % of control
same,T/C,"endpoint: mean survival time, dose: 50.0 mg/kg/injection, schedule: Q04DX002 (ip), vehicle: saline with Tween-80",88 % of control
same,T/C,[1],98 % of control
CNN(C)N=Nc1ccc(C(N)=O)cc1,T/C,"endpoint: mean survival time, dose: 19.75 mg/kg/injection, schedule: Q01DX009 (ip), vehicle: Klucel (hydroxypropylcellulose) (HPC)",110 % of control
same,T/C,"endpoint: mean survival time, dose: 39.5 mg/kg/injection, schedule: Q01DX009 (ip), vehicle: Klucel (hydroxypropylcellulose) (HPC)",118 % of control
same,T/C,"endpoint: mean survival time, dose: 79.0 mg/kg/injection, schedule: Q01DX009 (ip), vehicle: Klucel (hydroxypropylcellulose) (HPC)",93 % of control
[Cl][Hg][c]1ccco1,T/C,"endpoint: mean survival time, dose: 1.25 mg/kg/injection, schedule: Q01DX001 (ip), vehicle: Klucel (hydroxypropylcellulose) (HPC)",100 % of control
same,T/C,"endpoint: mean survival time, dose: 2.5 mg/kg/injection, schedule: Q01DX001 (ip), vehicle: Klucel (hydroxypropylcellulose) (HPC)",96 % of control
same,T/C,"endpoint: mean survival time, dose: 5.0 mg/kg/injection, schedule: Q01DX001 (ip), vehicle: Klucel (hydroxypropylcellulose) (HPC)",97 % of control
Cc1ccc(Cl)cc1NC(=O)c1ccc([N+](=O)[O-])cc1,T/C,"endpoint: mean survival time, dose: 100.0 mg/kg/injection, schedule: Q04DX003 (ip), vehicle: saline with Tween-80",90 % of control
CC1=NC(C#N)=C(C#N)N=C(C)C1,T/C,"endpoint: mean survival time, dose: 10.0 mg/kg/injection, schedule: Q04DX003 (ip), vehicle: Klucel (hydroxypropylcellulose) (HPC)",102 % of control
same,T/C,"endpoint: mean survival time, dose: 20.0 mg/kg/injection, schedule: Q04DX003 (ip), vehicle: Klucel (hydroxypropylcellulose) (HPC)",98 % of control
same,T/C,"endpoint: mean survival time, dose: 40.0 mg/kg/injection, schedule: Q04DX003 (ip), vehicle: Klucel (hydroxypropylcellulose) (HPC)",106 % of control
CCCCNC(C)(C)C(S)c1ccc(Cl)cc1 (stereo unspecified),T/C,"endpoint: mean survival time, dose: 12.0 mg/kg/injection, schedule: Q04DX003 (ip), vehicle: other",96 % of control
same,T/C,"endpoint: mean survival time, dose: 25.0 mg/kg/injection, schedule: Q04DX003 (ip), vehicle: other",105 % of control
same,T/C,"endpoint: mean survival time, dose: 50.0 mg/kg/injection, schedule: Q04DX003 (ip), vehicle: other",94 % of control
COc1cc2c(cc1OC)-c1cc(C)c3cc(OC)c(OC)cc3[n+]1CC2,T/C,"endpoint: mean survival time, dose: 25.0 mg/kg/injection, schedule: Q01DX009 (ip), vehicle: other",109 % of control
same,T/C,"endpoint: mean survival time, dose: 50.0 mg/kg/injection, schedule: Q01DX009 (ip), vehicle: other",115 % of control
same,T/C,"endpoint: mean survival time, dose: 100.0 mg/kg/injection, schedule: Q01DX009 (ip), vehicle: other",109 % of control

# Reference: PubChem BioAssay AID256 (DTP/NCI, 2004)
